In ChEMBL document CHEMBL1151493, “Cholestane glycosides with potent cytostatic activities on various tumor cells from Ornithogalum saundersiae bulbs” (Bioorg Med Chem Lett, 1997):
pIC50: −log10 of the molar value. In brackets after ≈: the same amount, converted by molar mass.

Tests used:
HL-60 [1] = test: Tested for the cytostatic activity as inhibitory concentration against leukemia HL-60 cells; assay type: functional, cell-based; conditions: Homo sapiens
Lu-65 = test: Tested for the cytostatic activity as inhibitory concentration against Lu-65 human pulmonary large cell carcinoma; assay type: functional, cell-based
CCRF-CEM = test: Tested for the cytostatic activity as inhibitory concentration against CCRF-CEM human leukemia cells; assay type: functional, cell-based
CCD 19Lu = test: Tested for the cytostatic activity as inhibitory concentration against CCD-19Lu (human normal pulmonary) cells; assay type: functional, cell-based
A549 = test: Tested for the cytostatic activity as inhibitory concentration against A-549 human pulmonary adenocarcinoma cells; assay type: functional, cell-based
Lu-99 cell line = test: Tested for the cytostatic activity as inhibitory concentration against Lu-99 human pulmonary large cell carcinoma; assay type: functional, cell-based
Mus musculus = test: Increased life span against mouse P388 leukemic cells after 0.01 mg/kg administration in mice; assay type: functional
P388/ADM = test: Tested for the cytostatic activity as inhibitory concentration against adriamycin resistant P-388 mouse leukemia cells; assay type: functional, cell-based
RERF-LC-AI = test: Tested for the cytostatic activity as inhibitory concentration against RERF-LC-AI human pulmonary squamous cell carcinoma; assay type: functional, cell-based
Homo sapiens = organism: Homo sapiens; test: Tested for hemolytic activity in human erythrocytes at 100 ug/ml; Not hemolytic; assay type: functional
NCI-60 panel = test: Tested in vitro for cytostatic activity against 60-cell line; conditions: Homo sapiens
P388CPT = test: Tested for the cytostatic activity as inhibitory concentration against camptothecin resistant P-388 mouse leukemia cells; assay type: functional, cell-based
FM3A = test: Tested for the cytostatic activity as inhibitory concentration against FM3A mouse mastrocarcinoma cells; assay type: functional, cell-based
P388 = test: Tested for the cytostatic activity as inhibitory concentration against P-388 mouse leukemia cells; assay type: functional, cell-based
HL-60 [2] = test: Tested in vitro for cytostatic activity against 60-cell line; assay type: functional, Homo sapiens
[3] = Homo sapiens, CCRF-CEM, read-out: IC50
[4] = Homo sapiens, CCD 19Lu, read-out: IC50
[5] = Homo sapiens, Lu-99, read-out: IC50
[6] = Mus musculus, P388, read-out: IC50

pIC50 (HL-60 [1]) | Molecule | IC50 (CCRF-CEM; [3]) [ng/mL] | IC50 (CCD 19Lu; [4]) [ng/mL] | IC50 (Lu-99 cell line; [5]) [ng/mL] | IC50 (P388; [6]) [ng/mL] | other results
9.62 | COc1ccc(C(=O)O[C@@H]2[C@H](O[C@H]3[C@@H](OC(C)=O)[C@H](O[C@H]4C[C@H]5[C@@H]6CC=C7C[C@@H](O[C@@H]8O[C@@H](CO)[C@@H](O)[C@H](O)[C@@H]8O)CC[C@]7(C)[C@H]6CC[C@]5(C)[C@@]4(O)[C@H](C)C(=O)CCC(C)C)OC[C@@H]3O)OC[C@@H](O)[C@@H]2O)cc1 | – | – | – | – | –
9.54 | CC(=O)O[C@H]1[C@H](O[C@H]2C[C@H]3[C@@H]4CC=C5C[C@@H](O)CC[C@]5(C)[C@H]4CC[C@]3(C)[C@@]2(O)[C@H](C)C(=O)CCC(C)C)OC[C@H](O)[C@H]1O[C@@H]1OC[C@@H](O)[C@H](O)[C@@H]1OC(=O)/C=C/c1ccccc1 | – | – | – | – | –
9.70 | COc1ccc(C(=O)O[C@@H]2[C@H](O[C@H]3[C@@H](OC(C)=O)[C@H](O[C@H]4C[C@H]5[C@@H]6CC=C7C[C@@H](O)CC[C@]7(C)[C@H]6CC[C@]5(C)[C@]4(O)[C@H](C)C(=O)CCC(C)C)OC[C@@H]3O)OC[C@@H](O)[C@@H]2O)cc1OC | – | – | – | – | –
9.92 | CC(=O)O[C@H]1[C@H](O[C@H]2C[C@H]3[C@@H]4CC=C5C[C@@H](O[C@@H]6O[C@@H](CO)[C@@H](O)[C@H](O)[C@@H]6O)CC[C@]5(C)[C@H]4CC[C@]3(C)[C@@]2(O)[C@H](C)C(=O)CCC(C)C)OC[C@H](O)[C@H]1O[C@@H]1OC[C@@H](O)[C@H](O)[C@@H]1OC(=O)/C=C/c1ccccc1 | – | – | – | – | –
– | CC[C@@]1(O)C(=O)OCc2c1cc1n(c2=O)Cc2cc3ccccc3nc2-1 [CAMPTOTHECIN] | 5 (≈ 14.4 nM) | 2000 (≈ 5740 nM) | 1 (≈ 2.87 nM) | 5 (≈ 14.4 nM) | –
– | COc1cccc2c1C(=O)c1c(O)c3c(c(O)c1C2=O)C[C@@](O)(C(=O)CO)C[C@@H]3O[C@H]1C[C@H](N)[C@H](O)[C@H](C)O1 [DOXORUBICIN] | 10 (≈ 18.4 nM) | 2000 (≈ 3680 nM) | 2 (≈ 3.68 nM) | 3 (≈ 5.52 nM) | –
– | CO[C@@]12[C@H](COC(N)=O)C3=C(C(=O)C(C)=C(N)C3=O)N1C[C@@H]1N[C@@H]12 [MITOMYCIN] | 20 (≈ 59.8 nM) | 2000 (≈ 5980 nM) | 10 (≈ 29.9 nM) | 10 (≈ 29.9 nM) | –
– | CC(=O)O[C@H]1C(=O)[C@@]2(C)[C@H]([C@H](OC(=O)c3ccccc3)[C@]3(O)C[C@H](OC(=O)[C@H](O)[C@@H](NC(=O)c4ccccc4)c4ccccc4)C(C)=C1C3(C)C)[C@]1(OC(C)=O)CO[C@@H]1C[C@@H]2O [PACLITAXEL] | 1 (≈ 1.17 nM) | 2000 (≈ 2340 nM) | 2 (≈ 2.34 nM) | 10 (≈ 11.7 nM) | –
– | CISPLATIN | – | – | – | – | IC50 (CCRF-CEM; ccrf-cem): 5 ng/mL; IC50 (CCD 19Lu; ccd 19lu): 10000 ng/mL; IC50 (Lu-99 cell line; lu-99): 1 ng/mL; IC50 (P388; p388): 50 ng/mL

Molecule | pIC50 (HL-60 [1]) | IC50 (CCRF-CEM; [3]) [ng/mL] | IC50 (CCD 19Lu; [4]) [ng/mL] | IC50 (Lu-99 cell line; [5]) [ng/mL] | IC50 (P388; [6]) [ng/mL] | other results
COc1ccc(C(=O)O[C@@H]2[C@H](O[C@H]3[C@@H](OC(C)=O)[C@H](O[C@H]4C[C@H]5[C@@H]6CC=C7C[C@@H](O)CC[C@]7(C)[C@H]6CC[C@]5(C)[C@@]4(O)[C@H](C)C(=O)CCC(C)C)OC[C@@H]3O)OC[C@@H](O)[C@@H]2O)cc1 | 9.60 | 0.16 (≈ 0.183 nM) | 1500 (≈ 1720 nM) | 0.2 (≈ 0.229 nM) | 0.13 (≈ 0.149 nM) | IC50 (Lu-65): 0.2 ng/mL (≈ 0.229 nM); IC50 (A549): 0.68 ng/mL (≈ 0.779 nM); ILS at 0.01 mg/kg (Mus musculus): 59%; IC50 (P388/ADM): 0.77 ng/mL (≈ 0.882 nM); IC50 (RERF-LC-AI): 0.26 ng/mL (≈ 0.298 nM); Activity (Homo sapiens): Not hemolytic; pIC50 (NCI-60 panel): 9.11; IC50 (P388CPT): 0.1 ng/mL (≈ 0.115 nM); IC50 (FM3A): 0.16 ng/mL (≈ 0.183 nM); IC100 (HL-60 [2]): 58 nM
CC(C)CCC(=O)[C@@H](C)[C@@]1(O)[C@@H](O[C@@H]2OC[C@H](O)[C@@H](O[C@@H]3OC[C@@H](O)[C@H](O)[C@@H]3O)[C@H]2O)C[C@H]2[C@@H]3CC=C4C[C@@H](O)CC[C@]4(C)[C@H]3CC[C@@]21C | 6.72 | – | – | – | – | –
